# Tests used:
# rat [1] = conditions: Chronic toxicity, fischer, Oral, Gavage/Intubation, dose end: 1 year, group: systemic
# mouse [2] = conditions: Subchronic oral toxicity in rodents, b6c3f1, Gavage/Intubation, dose end: 13 week, group: systemic
# mouse [3] = conditions: Carcinogenicity; cd1; Oral; Gavage/Intubation; dose end: 104 week; group: systemic; systemic / pathology microscopic / gallbladder / adenoma + systemic / pathology microscopic / gallbladder / hemangioma + systemic / …
# rat [4] = conditions: Subchronic oral toxicity in rodents, fischer, Gavage/Intubation, dose end: 90 day, group: systemic, systemic / clinical chemistry / cholesterol / cholesterol + systemic / in life observation / food consumption / food consumption + systemic…
# rat [5] = conditions: Subchronic dermal toxicity, sprague dawley, Topical, dose end: 13 week, group: systemic, systemic / in life observation / clinical signs / desquamation + systemic / in life observation / clinical signs / erythema + systemic / in …
# rat [6] = conditions: Prenatal developmental toxicity study, sprague dawley, Oral, Gavage/Intubation, dose end: 15 GD
# rat [7] = conditions: Subchronic oral toxicity in rodents, wistar, Feed, dose end: 90 day, group: systemic, systemic / in life observation / clinical signs / motor activity + systemic / organ weight / kidney / relative to body weight + systemic / …
# rat [8] = conditions: Prenatal developmental toxicity study, Oral, Gavage/Intubation, dose end: 19 GD
# [9] = systemic / in life observation / body weight / body weight
# [10] = systemic / in life observation / body weight / body weight + systemic / organ weight / adrenal gland / relative to body weight + systemic / …
# [11] = systemic / clinical chemistry / fatty acids / fatty acid + systemic / pathology microscopic / bone marrow / hypocellularity + systemic / …
# [12] = systemic / pathology microscopic / liver / hypertrophy
# [13] = group: developmental, developmental / developmental malformation / bone / bent + systemic / in life observation / body weight / fetal weight
# [14] = group: maternal, systemic / in life observation / body weight / body weight + systemic / in life observation / body weight / body weight gain + systemic / in…
# [15] = group: developmental, systemic / in life observation / body weight / fetal weight + developmental / developmental malformation / bone / unossified + developmental…
# [16] = group: maternal, reproductive / reproductive performance / resorptions / resorptions + systemic / in life observation / body weight / body weight + systemic…
structure (smiles),measurement,setting,value
Cc1c(C)c2c(c(C)c1O)CCC(C)(COc1ccc(CC3SC(=O)NC3=O)cc1)O2 (stereo not given) [Troglitazone],LEL,rat [1]; [9],25 mg/kg/day
same,NEL,rat [1]; [9],< 25 mg/kg/day
same,LOAEL,rat [1]; [10],> 100 mg/kg/day
same,NOAEL,rat [1]; [10],≥ 100 mg/kg/day
same,LOAEL,mouse [2]; [11],> 1200 mg/kg/day
same,NOAEL,mouse [2]; [11],≥ 1200 mg/kg/day
same,LEL,mouse [2]; [12],50 mg/kg/day
same,NEL,mouse [2]; [12],< 50 mg/kg/day
same,LEL,mouse [3],50 mg/kg/day
same,LOAEL,mouse [3],> 50 mg/kg/day
same,NEL,mouse [3],4 mg/kg/day
same,NOAEL,mouse [3],≥ 50 mg/kg/day
same,LEL,rat [4],20 mg/kg/day
same,LOAEL,rat [4],> 2500 mg/kg/day
same,NEL,rat [4],< 20 mg/kg/day
same,NOAEL,rat [4],≥ 2500 mg/kg/day
CCC(C)(C)c1ccc(O)cc1 [4-(2-Methylbutan-2-yl)phenol],LEL,rat [5],10 mg/kg/day
same,LOAEL,rat [5],10 mg/kg/day
same,NEL,rat [5],2.5 mg/kg/day
same,NOAEL,rat [5],2.5 mg/kg/day
same,LEL,rat [6]; [13],500 mg/kg/day
same,LOAEL,rat [6]; [13],500 mg/kg/day
same,NEL,rat [6]; [13],200 mg/kg/day
same,NOAEL,rat [6]; [13],200 mg/kg/day
same,LEL,rat [6]; [14],200 mg/kg/day
same,LOAEL,rat [6]; [14],200 mg/kg/day
same,NEL,rat [6]; [14],50 mg/kg/day
same,NOAEL,rat [6]; [14],50 mg/kg/day
Cc1cc(Cl)ccc1OCC(=O)OCCCCCC(C)C [MCPA-isooctyl],LEL,rat [7],54 mg/kg/day
same,LOAEL,rat [7],54 mg/kg/day
same,NEL,rat [7],5 mg/kg/day
same,NOAEL,rat [7],5 mg/kg/day
same,LEL,"rat [8]; group: developmental, developmental / developmental malformation / bone / ossification sites",40 mg/kg/day
same,LOAEL,rat [8]; [15],120 mg/kg/day
same,NEL,rat [8]; [15],15 mg/kg/day
same,NOAEL,rat [8]; [15],40 mg/kg/day
same,LEL,rat [8]; [16],120 mg/kg/day
same,LOAEL,rat [8]; [16],120 mg/kg/day
same,NEL,rat [8]; [16],40 mg/kg/day
same,NOAEL,rat [8]; [16],40 mg/kg/day

# From EPA's ToxRefDB 2
